According to patent US10202388B2, “Fused-ring compounds, pharmaceutical composition and uses thereof” (SHANGHAI DE NOVO PHARMATECH CO., LTD., priority 2015, dated 2019):

These molecules were tested against HeLa cell based IDO1 (Homo sapiens (Human), UniProt P14902) (assay: Three-point IDO1 cellular assay (HeLa, 10, 100 and 1000 nM)). Settings: HeLa cells, at 10 nM, 100 ng/mL IFN-γ, 18 hours.
Experimental: To perform the 3-point HeLa cell based IDO1 assay, HeLa cells were seeded at 25,000 cells per well into 96-well microplate in 100 μL of growth medium. Cells were incubated at 37° C. and 5% CO2 overnight. The next day 100 μL per well of diluted inhibitor in growth medium at 10, 100 and 1000 nM, respectively, was added at a final concentration of 100 ng/ML human IFN-γ. Cells were incubated at 37° C. in a CO2 incubator for 18 hours. […] The plate was incubated at 50° C. for 30 min to hydrolyze N-formylkynurenine produced by IDO1 to kynurenine. The plate was then centrifuged at 2500 rpm for 10 min to remove sediments. 100 μl of supernatant per well was transferred to another 96-well plate and mixed with 100 μL of 2% (w/v) 4-(Dimethylamino) benzaldehyde in acetic acid. The plate was incubated at room temperature for 10 minutes, the yellow color derived from kynurenine was recorded by measuring absorbance at 480 nm using a microplate reader (TECAN Infinite M1000 Pro). Cell based assays were performed in triplicate at each concentration. The absorbance data were analyzed using the computer software, Graphpad Prism. In the absence of the compound and presence of 100 ng/ML IFN-γ, the absorbance (At) in each data set was defined as 100%. The absorbance of medium blank (Ab) in each data set was defined as 0%. The percent absorbance in the presence of each compound was calculated according to the following equation: % Absorbance=(A−Ab)/(At−Ab), where A=the absorbance in the presence of the compound and IFN-γ, Ab=the absorbance of medium blank, and At=the absorbance in the absence of the compounds and presence of IFN-γ. The values of % absorbance versus the compound concentrations were then determined.

HeLa cell based IDO1, sequence (P14902 whole entry): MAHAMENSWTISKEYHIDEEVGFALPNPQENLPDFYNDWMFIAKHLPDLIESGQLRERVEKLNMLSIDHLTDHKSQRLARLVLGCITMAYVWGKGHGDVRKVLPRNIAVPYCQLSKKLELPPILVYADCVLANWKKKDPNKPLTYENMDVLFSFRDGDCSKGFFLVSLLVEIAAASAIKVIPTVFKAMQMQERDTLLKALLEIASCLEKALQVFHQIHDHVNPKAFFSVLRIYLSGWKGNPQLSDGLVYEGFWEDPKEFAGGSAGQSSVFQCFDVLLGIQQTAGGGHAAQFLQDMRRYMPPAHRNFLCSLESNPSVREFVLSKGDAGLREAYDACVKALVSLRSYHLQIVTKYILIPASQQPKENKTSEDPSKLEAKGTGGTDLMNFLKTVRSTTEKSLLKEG

SMILES	inhibition at 0.01 µM	inhibition values of %
O=S(=O)(CC1CCCCC1)NC1C2CC3CC1CC(C(O)CC1c4c(F)cccc4-c4cncn41)(C3)C2 (stereo not drawn) [Compound 65]	> 50%	
Cc1ccc(CS(=O)(=O)NC2C3CC4CC2CC(C(O)CC2c5c(F)cccc5-c5cncn52)(C4)C3)cc1 (stereo not drawn) [Compound 70A]	> 50%	
O=S(=O)(Cc1ccccc1)NC1C2CC3CC1CC(C(O)CC1c4ccccc4-c4cncn41)(C3)C2 (stereo not drawn) [Compound 75A]	> 50%	

Next, values leading:

inhibition at 0.01 µM	inhibition values of %	SMILES
> 50%		O=S(=O)(CC1CCCC1)NC1C2CC3CC1CC(C(O)CC1c4c(F)cccc4-c4cncn41)(C3)C2 (stereo not drawn) [Compound 82A]
	greater than 50%	O=S(=O)(NC1C2CC3CC1CC(C(O)CC1c4c(F)cccc4-c4cncn41)(C3)C2)C1CCCC1 (stereo not drawn) [Compound 85A]

Same assay, conditions: HeLa cells, at 100 nM, 100 ng/mL IFN-γ, 18 hours

SMILES	inhibition at 0.1 µM	inhibition values of %
CS(=O)(=O)NC1C2CC3CC1CC(C(O)CC1c4c(F)cccc4-c4cncn41)(C3)C2 (stereo not drawn) [Compound 46A]	> 50%	
O=C(Cc1ccccc1)NC1C2CC3CC1CC(C(O)CC1c4ccccc4-c4cncn41)(C3)C2 (stereo not drawn) [Compound 53B]	> 50%	
O=S(=O)(CCc1ccccc1)NC1C2CC3CC1CC(C(O)CC1c4c(F)cccc4-c4cncn41)(C3)C2 (stereo not drawn) [Compound 64]	> 50%	
O=S(=O)(CC1CC1)NC1C2CC3CC1CC(C(O)CC1c4c(F)cccc4-c4cncn41)(C3)C2 (stereo not drawn) [Compound 68]	> 50%	

Other lines, results leading:

inhibition at 0.1 µM	inhibition values of %	SMILES
	greater than 50%	O=S(=O)(CC1CCOCC1)NC1C2CC3CC1CC(C(O)CC1c4c(F)cccc4-c4cncn41)(C3)C2 (stereo not drawn) [Compound 84A]
	greater than 50%	CN(C1C2CC3CC1CC(C(O)CC1c4c(F)cccc4-c4cncn41)(C3)C2)S(=O)(=O)Cc1ccccc1 (stereo not drawn) [Compound 89]
> 50%		O=C(Nc1ccc(F)cc1)NC1C2CC3CC1CC(C(O)CC1c4c(F)cccc4-c4cncn41)(C3)C2 (stereo not drawn) [Compound 93B]
> 50%		O=C(Nc1ccc(Cl)cc1)NC1C2CC3CC1CC(C(O)CC1c4c(F)cccc4-c4cncn41)(C3)C2 (stereo not drawn) [Compound 94A]
> 50%		O=C(Nc1ccc(Br)cc1)NC1C2CC3CC1CC(C(O)CC1c4c(F)cccc4-c4cncn41)(C3)C2 (stereo not drawn) [Compound 95A]
> 50%		O=C(NC1CCCCC1)NC1C2CC3CC1CC(C(O)CC1c4c(F)cccc4-c4cncn41)(C3)C2 (stereo not drawn) [Compound 96A]

Same assay, conditions: HeLa cells, at 1000 nM, 100 ng/mL IFN-γ, 18 hours

SMILES	inhibition at 1 µM	inhibition values of %
NS(=O)(=O)NC1C2CC3CC1CC(C(O)CC1c4c(F)cccc4-c4cncn41)(C3)C2 (stereo not drawn) [Compound 48A]	> 50%	
O=C(Cc1ccncc1)NC1C2CC3CC1CC(C(O)CC1c4ccccc4-c4cncn41)(C3)C2 (stereo not drawn) [Compound 50A]	> 50%	
O=C(CO)NC1C2CC3CC1CC(C(O)CC1c4ccccc4-c4cncn41)(C3)C2 (stereo not drawn) [Compound 51A]	> 50%	
O=C(NC1CCOCC1)NC1C2CC3CC1CC(C(O)CC1c4c(F)cccc4-c4cncn41)(C3)C2 (stereo not drawn) [Compound 54]		greater than 50%
O=C(Nc1cccnc1)NC1C2CC3CC1CC(C(O)CC1c4c(F)cccc4-c4cncn41)(C3)C2 (stereo not drawn) [Compound 56A]	> 50%	
O=C1C2CC3CC1CC(C(O)CC1c4c(F)cccc4-c4cncn41)(C3)C2 (stereo not drawn) [Compound 63]		greater than 50%
O=S(=O)(CC1CCC1)NC1C2CC3CC1CC(C(O)CC1c4c(F)cccc4-c4cncn41)(C3)C2 (stereo not drawn) [Compound 67A]	> 50%	
CNC(=O)NC1C2CC3CC1CC(C(O)CC1c4c(F)cccc4-c4cncn41)(C3)C2 (stereo not drawn) [Compound 98A]		greater than 50%

Results, then the molecule that gave them:

inhibition at 1 µM	inhibition values of %	SMILES
> 50%		O=S(=O)(Cc1ccccc1)NC1C2CC3CC1CC(C(O)CC1c4ccccc4-c4cncn41)(C3)C2 (stereo not drawn) [Compound 75B]
	greater than 50%	N#CC1C2CC3CC1CC(C(O)CC1c4c(F)cccc4-c4cncn41)(C3)C2 (stereo not drawn) [Compound 76]
	greater than 50%	ON=C1C2CC3CC1CC(C(O)CC1c4c(F)cccc4-c4cncn41)(C3)C2 (stereo not drawn) [Compound 80]
> 50%		CC(=O)c1ccc(NC(=O)NC2C3CC4CC2CC(C(O)CC2c5ccccc5-c5cncn52)(C4)C3)cc1 (stereo not drawn) [Compound 104]
